Source: the NIST ThermoML archive (doi:10.1016/j.fluid.2011.06.007)
± gives the expanded uncertainty stated by the source.

Test: xn = mol fraction of the nth substance listed
Settings: Liquid; for mass density: 298.15 K, 101.3 kPa, Vibrating tube method; for interfacial tension: 303.15 K, maximum differential bubble pressure

CCC(C)(C)OC [2-methoxy-2-methylbutane] + CCCCCC
mass density (x2 = 0): 765.8 ± 0.14 kg/m3
mass density (x2 = 0.038): 761.49 ± 0.27 kg/m3
mass density (x2 = 0.092): 755.29 ± 0.27 kg/m3
mass density (x2 = 0.145): 749.34 ± 0.27 kg/m3
mass density (x2 = 0.194): 743.82 ± 0.27 kg/m3
mass density (x2 = 0.247): 737.76 ± 0.27 kg/m3
mass density (x2 = 0.346): 726.73 ± 0.27 kg/m3
mass density (x2 = 0.443): 715.93 ± 0.27 kg/m3
mass density (x2 = 0.497): 709.95 ± 0.27 kg/m3
mass density (x2 = 0.552): 703.83 ± 0.27 kg/m3
mass density (x2 = 0.597): 698.92 ± 0.27 kg/m3
mass density (x2 = 0.644): 693.78 ± 0.27 kg/m3
mass density (x2 = 0.696): 688.15 ± 0.28 kg/m3
mass density (x2 = 0.745): 682.72 ± 0.28 kg/m3
mass density (x2 = 0.795): 677.33 ± 0.28 kg/m3
mass density (x2 = 0.852): 671.14 ± 0.28 kg/m3
mass density (x2 = 0.901): 665.86 ± 0.28 kg/m3
mass density (x2 = 0.952): 660.3 ± 0.28 kg/m3
interfacial tension (x2 = 0): 22 ± 0.2 mN/m
interfacial tension (x2 = 0.051): 21.6 ± 0.2 mN/m
interfacial tension (x2 = 0.1): 21.06 ± 0.2 mN/m
interfacial tension (x2 = 0.209): 20.64 ± 0.2 mN/m
interfacial tension (x2 = 0.305): 20.12 ± 0.2 mN/m
interfacial tension (x2 = 0.399): 19.8 ± 0.2 mN/m
interfacial tension (x2 = 0.506): 19.12 ± 0.2 mN/m
interfacial tension (x2 = 0.611): 18.71 ± 0.2 mN/m
interfacial tension (x2 = 0.714): 18.34 ± 0.2 mN/m
interfacial tension (x2 = 0.813): 18.02 ± 0.2 mN/m
interfacial tension (x2 = 0.914): 17.66 ± 0.2 mN/m
interfacial tension (x2 = 0.96): 17.55 ± 0.2 mN/m

CCCCCC [hexane] + CCC(C)(C)OC
mass density (x1 = 1): 655.19 ± 0.18 kg/m3
interfacial tension (x1 = 1): 17.4 ± 0.2 mN/m
